The source of these data is a melting point compilation (Tetko et al.; mined from patent text by program, amines drawn as free bases though some values may be those of a salt).

Take `Nc1nc(O)c2c(n1)NCC(CCc1ccc(C(=O)N[C@@H](CCC(=O)O)C(=O)O)c(F)c1)C2` (some centres not stated): the melting point (in general, the temperature, or range, at which the solid turns liquid) was in the range of 199 to 209 °C.

In the case of `CCOc1cc(C(=O)CCCC2CCCCC2)c(O)cc1C`, the melting point lay in the range of 48 to 49 °C.

As for `CC(Sc1cc(C(C)(C)C)c(O)c(C(C)(C)C)c1)C(=O)O` (configuration not stated), the melting point fell in the range of 110 to 113 °C.

Regarding `Clc1ccc(C2(c3ccc4noc(-c5ccccc5)c4c3)OCCO2)cc1`, the melting point was 143 °C.

The compound `CC1(C)Cc2c(ccc3c2C(c2cccc(-c4ccc(C(N)=O)cc4)c2)=NCC3(C)C)O1` displayed a melting point of 284 to 296 °C.

For the compound `N#Cc1cn(Cc2c(F)cccc2F)nn1`, the melting point was 116 °C.

Compound `CC(Cc1c[nH]c2ccccc12)(NC(=O)OC1C2CC3CC(C2)CC1C3)C(=O)NC(CNC(=O)CCC(=O)O)Cc1ccccc1` (configuration not stated) registered a melting point of 110 to 114 °C.

As to `N=C1NN(c2ccccc2)CC1CN1CCOCC1` (configuration not stated), the melting point was 204 to 205 °C.

In the case of `CCC(c1ccc(C(O)(C(F)(F)F)C(F)(F)F)cc1)S(=O)(=O)c1ccccc1` (configuration not stated), the melting point was determined as 148 °C.

Take `CCCCNC(=O)/C(=C/C=C/c1cc2ccccc2[nH]1)OC`: the melting point fell in the range of 185 to 186 °C.

With `O=[N+]([O-])C=C1CCCN1C1=CC(CF)(CF)Oc2ccc(C(F)(F)C(F)(F)F)cc21`, the melting point is 195 to 197 °C.

On to `CCCCCCCCCC(=O)Cc1ccc(OCc2ccccc2)c(OCc2ccccc2)c1`, for which the melting point is 68 °C.

`OCCOc1cncc(Cl)c1` returned a melting point of 38 to 40 °C.

In the case of `O=C(Nc1ccc(-n2nc(C3CC3)cc2C2CC2)cc1)Nc1ccc2ncccc2c1`, the melting point lay within 102 to 104 °C.

`O=C(Nc1ccccc1)O[C@@H]1CN=C(c2ccc(Cl)c(Cl)c2)O[C@H]1c1ccccc1` (racemic) returned a melting point of 130 °C.

`CNCCOc1cc(NC(=O)c2ccc(-c3ccc(-c4noc(C)n4)cc3C)cc2)ccc1OC` returned a melting point of 97 to 99 °C.

Turning to `C[N+]([O-])=C(Cn1ccnc1)c1cccs1`, the melting point is 162 to 164 °C.

The compound `O=S(=O)(c1ccccc1)C(CC(F)(F)F)c1ccc(C(O)(C(F)(F)F)C(F)(F)F)cc1` (configuration not stated) registered a melting point of 151 °C.

For `CN1CCC(C2=C(C#N)C(c3cccc(C#N)c3Br)c3c[nH]nc3N2)CC1` (configuration not stated), the melting point is over 270 °C.

`CCn1c(=O)c2c(nc(/C=C/c3ccc4c(c3)OCCO4)n2C)n(CC)c1=O`: the melting point was in the range of 233 to 234 °C.

As for `COc1cccc(CC2CCCc3cc(OCc4ccccc4)c(OC)cc3N2)c1` (configuration not stated), the melting point was in the range of 92 to 93 °C.

`N=C(N)Nc1nc(CCCCNC(N)=N[N+](=O)[O-])cs1` showed a melting point of 180 to 181 °C.

In turn, `CCn1c(-c2cc(OC)c(OC)cc2S(N)(=O)=O)cc(=Nc2c(C)cc(C)c(S(N)(=O)=O)c2C)n(C)c1=O` had a melting point of 173 to 178 °C.

In the case of `O=C1N(Cc2noc(C3CC3)n2)c2ccccc2C12COc1cc3c(cc12)OCO3` (configuration not stated), the melting point was 136 to 137 °C.

As to `COc1ccc(-c2cnc(NS(=O)(=O)c3ccc(C)cc3)nc2)cc1`, the melting point lay within 220 to 223 °C.

In turn, `CC(=O)OCCCCn1c(=O)sc2c(=O)[nH]c(N)nc21` registered a melting point of 189 to 190 °C.

With `CCOC(=O)c1cc(NCc2ccccc2)c(Oc2ccc(OC)cc2)c(S(N)(=O)=O)c1`, the melting point was 189 to 190 °C.

As for `C#CCn1nnnc1SC(c1ccccc1)c1ccccc1`, the melting point was 92 °C.

`O=C1C(=Cc2ccccc2)COc2ccccc21` came in with a melting point of 112 to 113 °C.

Regarding `COc1c(Cl)ccc(-c2cc(N)c(Cl)c(C(=O)NOCc3ccc(Cl)cc3)n2)c1F`, the melting point is 177 to 180 °C.

For the compound `C[C@]12CC[C@H](O)CC1=CCC1C2CC[C@@]2(C)C1CC[C@@H]2c1cn(Cc2ccccc2)nn1` (some centres not stated), the melting point is 286 to 287 °C.

In turn, `CCCCOCCOc1ccc(-c2ccc3c(c2)C=C(C(=O)Nc2ccc(OCc4nccn4CCC)cc2)CCN3CC(C)C)cc1` showed a melting point of 118 to 120 °C.

Regarding `Cc1cc(C#N)cc(C)c1OCCCCCc1cc(CO)no1`, the melting point was in the range of 63 to 64 °C.

In the case of `O=C(O)c1cccc(NC(=O)C(CSC(=O)c2ccccc2)Cc2ccccc2)c1` (configuration not stated), the melting point was in the range of 182 to 184 °C.

For `O=C(N[C@@H](CCC1CCCCC1)[C@@H](O)[C@@H](O)CN1CCOCC1)OCc1ccccc1`, the melting point was 124 to 125 °C.

The compound `CC1(N)CCN(c2c(F)c(F)c3c(=O)c(C(=O)O)cn(C4CC4)c3c2F)C1` (configuration not stated) registered a melting point of 280 to 282 °C.

Compound `Cc1cccc(C)c1C=Nc1cc(Cl)c(N=CN(C)C)c(Cl)c1` returned a melting point of 123 to 124 °C.

For the compound `FC(F)(F)COc1ccc(-c2nc3n(c2-c2ccc(OCC(F)(F)F)cc2)CCS3)cc1`, the melting point lay within 163 to 164 °C.

In the case of `COc1cc(CCc2ccccc2OCc2ccccc2)ncc1C(=O)O`, the melting point is 182 °C.

Turning to `CCCCN(CCCC)c1ccc(C=CC=CC=CC2=C(C#N)C(=C(C#N)C#N)OC2(C)C)c(OC)c1`, the melting point was 156 to 160 °C.

`CN(C)Cc1cc2ccc(-c3nnc(CSCCOc4ccccc4)o3)cc2[nH]1` registered a melting point of 128 to 130 °C.

Take `CN(C)Cc1nnc2n1-c1ccc(Cl)cc1N(c1ccccc1)C(=O)C2`: the melting point lay within 232 to 234 °C.

Regarding `CN(C)C(=NC1CCCCC1)C(N)=S`, the melting point lay within 116 to 120 °C.

Turning to `O=C(O)c1ccc(-c2ccc(OCCCCCCO)cc2)cc1`, the melting point is 235 °C.

Take `O=c1n(-c2ccc(OCC(F)(F)C(F)F)cc2)cnn1CC(O)(Cn1cncn1)c1ccc(F)cc1F` (racemic): the melting point fell in the range of 79 to 80 °C.

In turn, `O=c1c(OCc2nnn[nH]2)coc2ccccc12` yielded a melting point of 194 to 196 °C.

In turn, `COC(=O)c1c(/C=C/c2ccccc2)ccc2ccccc12` gave a melting point of 68 to 71 °C.

In the case of `CC(C)(CCl)C(=O)N(O)Cc1ccccc1`, the melting point lay within 90 to 92 °C.

`CCCCOC(=O)c1ccc2ccc(C)nc2c1OC(=O)C(C)(C)C`: the melting point was determined as 52 °C.

As to `Nc1ccn([C@@]2(O)CC=C(P(=O)(O)O)O[C@@H]2CO)c(=O)n1`, the melting point came out at 290 °C.

Compound `COc1ccc(NC(=O)NC2CCN(Cc3ccccc3)CC2)c(CCc2cc(C(C)(C)C)c(O)c(C(C)(C)C)c2)c1` returned a melting point of 174 to 175 °C.

Take `COC(=N)N1CCC(c2n[nH]c3cc(Cl)ccc23)CC1`: the melting point was 173 to 175 °C.

For `Nc1ccc(C2CCSCC2)cc1`, the melting point fell in the range of 103 to 106 °C.

`CCOc1nc(C(F)(F)F)cc(=O)n1-c1cc(C(=O)OC)c(Cl)cc1F` came in with a melting point of 96 to 98 °C.

`CC(C)(C)C(NC(=O)c1ccc(Cl)cc1)NC(=NC#N)Nc1cccc(F)c1` (configuration not stated) returned a melting point of 167 to 170 °C.

In the case of `COc1ccc(NCC(O)CO)cc1` (configuration not stated), the melting point was 151 to 153 °C.

Compound `FC(F)(F)c1ccc(-c2cc(Oc3ccc4cccnc4c3)nnc2Oc2ccc3cccnc3c2)cc1` came in with a melting point of 158 to 162 °C.

In turn, `C[C@@H](n1ncn(-c2ccncc2)c1=O)[C@@]1(c2ccc(F)cc2F)CO1` showed a melting point of 96 to 97 °C.

For the compound `COc1cc(C(N)C(N)=O)c(F)cc1Cl` (configuration not stated), the melting point was 162 °C.

The compound `Nc1c2c(=O)n3c(nc2nn1CC(F)(F)F)SCC3` came in with a melting point of 285 to 288 °C.

Take `Cc1cccc(N(C)c2n[nH]c3ncnc(Nc4cccc(Cl)c4)c23)n1`: the melting point is 231 to 233 °C.

As to `Cl/C(=C\n1ccnc1)c1ccc(Cl)cc1Cl`, the melting point is 59.1 °C.

`Cc1ccc(N(C)S(=O)(=O)c2cccs2)c2[nH]c(C(N)=O)cc12` showed a melting point of 221 to 222 °C.

Compound `C[C@@H]1CN(Cc2ccccc2)C[C@H]1N` (relative stereo) gave a melting point of 74 to 80 °C.

`CN(C(=O)Nc1ccc(Cl)cc1)c1nnc(Cl)s1` came in with a melting point of 250 °C.

Compound `Cc1cc([N+](=O)[O-])c(Cl)cc1Cl` came in with a melting point of 40 to 44 °C.

Compound `CCCCCCCCCCCCCCOc1ccc(C(=O)OCC)o1` yielded a melting point of 39 to 40 °C.

In turn, `COc1cc2cnnc(N3CCC(CCN(C)C(=O)NC4CCCCC4)CC3)c2cc1OC` displayed a melting point of 204 to 206 °C.

Turning to `COc1ccc(OCCCc2cn(-c3ccc(C(F)(F)F)cn3)nc2C(C)C)c(CC(=O)O)c1`, the melting point lay in the range of 143 to 144 °C.

`CN(Cc1ccccc1)c1ccc(C(=O)O)nc1` yielded a melting point of 168 to 173 °C.

In turn, `CCOC(=O)c1cn(CC)c2cc(-c3csc(CN(C)C(C)=O)n3)c(F)cc2c1=O` returned a melting point of 173 to 175 °C.

Regarding `CNC(=O)c1ccc(CCN2CC=C(c3c[nH]c(-c4ccc(F)cc4)c3-c3ccncc3)CC2)cc1`, the melting point was 231 to 233 °C.

Regarding `COC(=O)[C@H](Cc1ccc(OCCCN(C)Cc2ccccc2)cc1)NC(=O)[C@@H]1CCCN1S(=O)(=O)c1ccc(C)cc1`, the melting point was in the range of 60 to 70 °C.

`Nc1nc(-n2cc(C(=O)O)c(=O)c3cc(F)c(N4CC(O)C4)c(Br)c32)c(F)cc1F` showed a melting point of 215 to 220 °C.

`CCCCCCNC(=O)C#CBr` came in with a melting point of 64 to 64.3 °C.

`COc1ccc(-c2[nH]nc3c2C(=O)c2c(NC=O)cccc2-3)cc1` registered a melting point of 280 °C.

On to `COc1ccccc1C(=O)c1c(SC)oc2ccccc2c1=O`, for which the melting point was 145 °C.

In the case of `O=C(O)CCc1ccc(OCCCCc2cc(-c3ccc(C(F)(F)F)cc3)no2)cc1`, the melting point was in the range of 130 to 131 °C.

For the compound `CCCCNc1c(C(=O)OCC)c(C)nc2nnsc12`, the melting point is 57 to 58 °C.

In turn, `CC(=O)CC(=O)C=Cc1ccc2[nH]ccc2c1` gave a melting point of 136 to 137 °C.

The compound `CCCCc1ncc(C(C)CC(=O)O)n1Cc1ccccc1Cl` (configuration not stated) showed a melting point of 131 to 133 °C.

`CC1(C)c2ccc(C(O)CN3CCN(c4n[nH]c5ccccc45)CC3)cc2C(C)(C)C1O` (configuration not stated): the melting point lay in the range of 104 to 110 °C.

In turn, `COc1ccc(Oc2ccccc2)c(NS(C)(=O)=O)c1` returned a melting point of 110 to 111 °C.

`CC(=O)OC1CC2=CC(=O)C3C4CCC(C(C)CCCC(C)C)C4(C)CCC3C2(C)C(OC(C)=O)C1` (configuration not stated): the melting point was 121 to 122 °C.

In turn, `CCOC(=O)c1nn(-c2ccc(CP(=O)(OCC)OCC)cc2)nc1C` gave a melting point of 60 to 62 °C.

With `O=[N+]([O-])c1ccc(Oc2ccccc2Oc2ccc([N+](=O)[O-])cc2)cc1`, the melting point was in the range of 134 to 135 °C.

In turn, `CCCCCN1C(=O)C(CCC(=O)O)(NC(=O)c2ccc(Cl)c(Cl)c2)c2ccccc21` (configuration not stated) gave a melting point of 202 to 204 °C.
